Values quoted from earlier work in patent US20240077492A1, “ARRAY-BASED PEPTIDE LIBRARIES FOR THERAPEUTIC ANTIBODY CHARACTERIZATION” (Cowper Sciences Inc., priority 2016, published 2024).

Details: background statement

Remicade: one of the most prescribed antibody therapeutics
effective in fraction of the patient population: 25%
